Laboratory results as given in the METLIN SMRT retention time set (Domingo-Almenara et al. 2019).

Experiment: gradient 5% acetonitrile 3 min, to 50% in 2 min, to 85% in 15 min, held 3 min, 100 µL/min
Conditions: column: Zorbax Extend-C18 2.1 x 50 mm; eluents: water / acetonitrile, 0.1% formic acid
How it was run: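 Pure standards were analyzed in mixtures of ~100 molecules using HPLC coupled to a quadrupole time-of-flight mass spectrometer, in both positive and negative ionization mode. Separation used a Zorbax Extend-C18 column (2.1 × 50 mm, 1.8 μm) at 100 μL/min, with water and acetonitrile each containing 0.1% formic acid. Dead and dwell volumes were 40 μL and 900 μL, and data were collected over 3 months. Retention time was read from computationally picked adduct peaks, each inspected manually.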
In the case of `Cc1ccc(F)cc1S(=O)(=O)N1CC(F)(F)C[C@H]1CN1CCc2ccccc2C1`, the RP-LC retention time is reported as 795 s.
`Cc1ccc(-c2nnc(Cc3nc(-c4ccc(F)cc4)no3)o2)cc1F` showed an RP-LC retention time of 1100 s.
Work on `Cc1ccc([N+](=O)[O-])cc1NC(=O)Nc1ccc(S(N)(=O)=O)cc1` yielded an RP-LC retention time of 786 s.
In the case of `COc1ccccc1Nc1c(-c2ccc(C(=O)O)cc2)nc2cnccn12`, the RP-LC retention time is reported as 730 s.
`CN(CCCNC(=O)C1CCCN(C(=O)c2cccc(Cl)c2)C1)c1ccccc1` (stereo not drawn) gave an RP-LC retention time of 676 s.
In the case of `CCc1ccccc1S(=O)(=O)N1CCC(C(=O)NCc2csc(-c3ccccc3)n2)CC1`, the RP-LC retention time is reported as 999 s.
`CCc1nnc(-c2cccnc2N2CCN(C(=O)Nc3cc(Cl)cc(Cl)c3)CC2)o1` gave an RP-LC retention time of 968 s.
With `CC(C)(C)C(=O)Nc1cnc(-c2ccc(Cl)cc2)nc1` the RP-LC retention time was 1060 s.
For `Cc1[nH]c2ccc(C(=O)NC3CCCC3)cc2c1C`, the RP-LC retention time was 650 s.
`O=C1CC2(CCN(S(=O)(=O)c3ccc([N+](=O)[O-])cc3)CC2)Oc2ccccc21` showed an RP-LC retention time of 907 s.
Molecule `O=C(c1ccsc1)N1CCN(c2[nH]ncc2-c2ccccc2)CC1` has an RP-LC retention time of 774 s.
`COc1cccc(-c2noc(CN3C(=O)COc4cc(C)ccc43)n2)c1` showed an RP-LC retention time of 1050 s.
For `Cc1ccc(C2CCCN2C(=O)c2nc3nc(C)cc(C(F)F)n3n2)cc1` (stereo not drawn), the RP-LC retention time was 835 s.
Work on `Cc1ccc(CNC(=O)Cn2cnc3nc(N4CCCC(C(=O)NC5CC5)C4)sc3c2=O)cc1` (stereo not drawn) yielded an RP-LC retention time of 743 s.
`CN1CCN(C(=O)c2cc(-c3ccccc3)cn2C)CC1` showed an RP-LC retention time of 619 s.
`COc1ccc(NC(=O)N2[C@H]3CC[C@@H]2c2cnc(C)nc2C3)c(C)c1` showed an RP-LC retention time of 645 s.
With `Cc1[nH]c(C(=O)N2CCC(CC(=O)NCCCN3CCN(c4ccc(F)cc4)CC3)CC2)c(C)c1C` the RP-LC retention time was 675 s.
`Cc1ccc(S(=O)(=O)N2CCCC(CCC(=O)NCc3ccccc3)C2)cc1` (stereo not drawn) showed an RP-LC retention time of 960 s.
Work on `CS(=O)(=O)N1CCCc2cc(C(=O)NCc3ccc4c(c3)OCO4)ccc21` yielded an RP-LC retention time of 779 s.
`Cc1ccc2ncn(C3CCN(C(=O)Nc4ccccc4C)CC3)c(=O)c2c1` gave an RP-LC retention time of 754 s.
In the case of `CCOC(=O)C1C(=O)C(C(=O)OCC)C(c2ccccc2)NC1c1ccccc1` (stereo not drawn), the RP-LC retention time is reported as 832 s.
`Cc1cccc(-c2nocc2CCC(=O)NCc2ccccc2)c1` showed an RP-LC retention time of 907 s.
`CCN1CCCC1CNS(=O)(=O)c1cc(-c2nc(C)c(C(=O)N3CCCC3)s2)cs1` (stereo not drawn) showed an RP-LC retention time of 604 s.
With `O=C1NCCCCCN(C(=O)c2ccco2)[C@@H]2C[C@@H](C(=O)N3CCc4ccccc4C3)C[C@H]12` the RP-LC retention time was 752 s.
With `COc1ccc(OCc2nnc3sc(C4COc5ccccc5O4)nn23)cc1` (stereo not drawn) the RP-LC retention time was 913 s.
With `Cc1ccccc1CNC(=O)C1CCCN(c2ccc(=O)n(-c3cccc(Cl)c3)n2)C1` (stereo not drawn) the RP-LC retention time was 922 s.
`CCOC(=O)C1=CN(Cc2ccccc2)S(=O)(=O)N=C1C` gave an RP-LC retention time of 970 s.
Work on `COc1ccc(CC(=O)N2CCn3c(C)nnc3C2)cc1OC` yielded an RP-LC retention time of 579 s.
For `CC(=O)Nc1ccc(S(=O)(=O)N2CCCn3nc(-c4cccc(Cl)c4)cc3C2)cc1`, the RP-LC retention time was 910 s.
With `CCCNC(=O)C1CCCN(c2ccc(SCC(=O)Nc3cccc(Cl)c3)nn2)C1` (stereo not drawn) the RP-LC retention time was 683 s.
Molecule `CC(C)(C)NC(=O)NC1CCN(c2nc3cccnc3n(Cc3ccccc3)c2=O)CC1` has an RP-LC retention time of 995 s.
`COc1cc(Cl)ccc1C(=O)N1CCN(c2ccc(-c3nc(C)c(C)s3)cn2)CC1` showed an RP-LC retention time of 950 s.
`COc1ccc(NC(=O)NCCCn2c(C(F)(F)F)nc3cccnc32)cc1OC` gave an RP-LC retention time of 708 s.
Work on `CCOC(=O)C1CCCN(C(=O)CCCn2c(=O)c3cccn3c3ccc(Br)cc32)C1` (stereo not drawn) yielded an RP-LC retention time of 971 s.
For `CC(C)Oc1ccccc1CN1CCC2(CC1)CC(C)(O)CCO2` (stereo not drawn), the RP-LC retention time was 627 s.
With `CCn1cnc2cc(-c3noc(CNC(=O)c4ccc(C)cc4)n3)ccc21` the RP-LC retention time was 654 s.
`c1ccc2c(c1)c(-c1noc(-c3ccncc3)n1)nn2CCN1CCCCC1` showed an RP-LC retention time of 642 s.
Work on `Cc1ccccc1CNC(=O)C1CCN(CCc2cn(C)c3ncccc23)CC1` yielded an RP-LC retention time of 608 s.
`CCc1ccc(NC(=O)Cn2nc(C(=O)N3CCCC3)c3ccccc32)cc1` gave an RP-LC retention time of 917 s.
`CC(=O)c1cccc(NC(=O)Cn2cc(-c3nnc(C)o3)c3ccccc32)c1` gave an RP-LC retention time of 755 s.
Molecule `COCc1nncn1C1CCN(S(=O)(=O)c2ccc(Cl)c(C)c2)CC1` has an RP-LC retention time of 765 s.
For `CCc1ccc2[nH]c3c(c(=O)c2c1)CN(CC(=O)Nc1ccc(OC)c(Cl)c1)CC3`, the RP-LC retention time was 636 s.
`O=C(Cn1c(=O)cc(-c2nc(C3CC3)no2)c2ccccc21)Nc1ccc2c(c1)OCO2` gave an RP-LC retention time of 908 s.
Work on `Cc1noc(C)c1-c1ccc(S(=O)(=O)NC2CCCCCC2)cc1` yielded an RP-LC retention time of 1010 s.
For `CCN1C(=O)COc2ccc(-c3csc(NC(=O)C(C)(C)C)n3)cc21`, the RP-LC retention time was 910 s.
With `O=C(COc1ccc(Br)cc1)Nc1ccnn1Cc1cccs1` the RP-LC retention time was 916 s.
For `O=C(c1cccnn1)N1C[C@@H](COCC2CC2)[C@H](c2ccncc2)C1`, the RP-LC retention time was 563 s.
`COCCn1ncc(N2CCC(C(=O)N3CCc4ccccc43)C2)cc1=O` (stereo not drawn) showed an RP-LC retention time of 713 s.
`Cc1cc(=O)n2c(-c3cccc(NC(=O)c4sc(C)nc4C)c3)csc2n1` gave an RP-LC retention time of 645 s.
Work on `O=C(Cn1cnc(-c2noc(-c3ccncc3)n2)c1)NCc1ccc(F)cc1` yielded an RP-LC retention time of 654 s.
Molecule `c1ccc(-c2noc(COC3CCCN(C4CCOCC4)C3)n2)cc1` (stereo not drawn) has an RP-LC retention time of 628 s.
In the case of `Cc1ccc(Nc2c(-c3ccc(C(=O)O)cc3)nc3cnccn23)cc1`, the RP-LC retention time is reported as 766 s.
Molecule `O=C(NCCC1CCN(C(=O)Nc2cc(F)cc(F)c2)CC1)c1ccsc1` has an RP-LC retention time of 688 s.
Work on `O=C1[C@H]2CN(Cc3cc(Cl)ccc3F)C[C@H]2C(=O)N1CCN1CCc2ccccc2C1` yielded an RP-LC retention time of 684 s.
For `Cc1cc(N2CCCCC2)nc(N2CCN(C(=O)c3ccc(-c4ccccc4)cc3)CC2)n1`, the RP-LC retention time was 837 s.
In the case of `COc1ccc(Cl)cc1NC(=O)CCc1c(C)nn(-c2cc(N(C)C)ncn2)c1C`, the RP-LC retention time is reported as 940 s.
`COc1cc(OC)cc(C(=O)Nc2ccc(N3CCN(C4CCCC4)C3=O)nc2)c1` showed an RP-LC retention time of 829 s.
Molecule `CN1C[C@@H](NS(=O)(=O)N(C)C)C[C@@H]2c3cccc4c3c(cn4C)C[C@H]21` has an RP-LC retention time of 698 s.
For `CCNC(=O)C1CCCN(c2nc3ncn(CC(=O)Nc4cccc(Cl)c4)c(=O)c3s2)C1` (stereo not drawn), the RP-LC retention time was 701 s.
Molecule `O=S(=O)(c1cccn2c(SCc3c(F)cccc3Cl)nnc12)N1CCCC1` has an RP-LC retention time of 855 s.
`CC(=O)N1CCc2cc(N3CC(C(=O)Nc4ccccc4Br)CC3=O)ccc21` (stereo not drawn) gave an RP-LC retention time of 699 s.
With `O=S(=O)(Nc1cc(-c2ccoc2)no1)c1ccc(F)cc1F` the RP-LC retention time was 806 s.
`COCCN1C(=O)c2cccn2CC1CNS(=O)(=O)c1c(C)noc1C` (stereo not drawn) gave an RP-LC retention time of 689 s.
In the case of `CCC(=O)Nc1ccc(S(=O)(=O)NCCOc2ccc3c(c2)OCO3)cc1`, the RP-LC retention time is reported as 830 s.
For `CCOC(=O)c1noc2ncnc(NCc3ccccc3Cl)c12`, the RP-LC retention time was 965 s.
In the case of `CC(C)n1nccc1-c1nnc(NC(=O)C2CC(=O)N(c3ccc(F)cc3)C2)o1` (stereo not drawn), the RP-LC retention time is reported as 685 s.
`COc1ccc(C2Cn3nnc(-c4nc(-c5ccncc5)no4)c3CO2)cc1` (stereo not drawn) showed an RP-LC retention time of 873 s.
With `Cc1cc(C)n2nc(CN(C(=O)c3cccs3)c3ccc(F)cc3)nc2n1` the RP-LC retention time was 779 s.
With `Cc1ccc(S(=O)(=O)c2nc(S(C)(=O)=O)sc2NCc2ccccn2)cc1` the RP-LC retention time was 763 s.
Molecule `CC1Cn2cc(C(=O)NCCCN3CCOCC3)c(=O)c3c(Cl)ccc(c32)O1` (stereo not drawn) has an RP-LC retention time of 624 s.
`O=C(c1ccsc1)N1CCCC(c2nncn2-c2ccccc2)C1` (stereo not drawn) gave an RP-LC retention time of 667 s.
With `Cc1ncsc1C1N(C2CCN(C(=O)c3ccoc3)CC2)C(=O)C12CCCC2` (stereo not drawn) the RP-LC retention time was 719 s.
In the case of `CCc1ccc2c(c1)cc(S(=O)(=O)c1ccccc1)c(=O)n2CC(=O)NC(C)CC` (stereo not drawn), the RP-LC retention time is reported as 945 s.
`CSc1cccc(NC(=O)N2CCCC2c2nc(-c3cccc(C)c3)no2)c1` (stereo not drawn) gave an RP-LC retention time of 1080 s.
For `COC[C@@H]1CN(S(=O)(=O)c2c(C)noc2C)C[C@H]1c1ccncc1`, the RP-LC retention time was 570 s.
Work on `O=C(Nc1ccccc1)c1csc(-c2ccc(N3CCCC3)nc2)n1` yielded an RP-LC retention time of 728 s.
`O=C(c1ccco1)N1CC(Oc2ccc(-c3nc(-c4ccccc4)no3)cc2)C1` gave an RP-LC retention time of 856 s.
Molecule `COc1ccc(Cc2nnc3sc(-c4ccccc4)nn23)cc1` has an RP-LC retention time of 810 s.
Molecule `Fc1ccccc1N1CCN(Cc2nc(-c3ccc(N4CCCC4)nc3)no2)CC1` has an RP-LC retention time of 698 s.
In the case of `CCCNC(=O)Cn1c(CC)nc2ccccc21`, the RP-LC retention time is reported as 578 s.
`CCc1noc(-c2ccnc(-n3ncc(C(=O)N4CCOCC4)c3C)c2)n1` gave an RP-LC retention time of 760 s.
Molecule `CCc1nn2c(ncc3c(=O)n(-c4nccs4)ccc32)c1-c1ccc(F)cc1` has an RP-LC retention time of 1320 s.
For `Oc1cccc(-c2nc3ncccn3c2Nc2ccc(Cl)cc2)c1`, the RP-LC retention time was 710 s.
Work on `COc1ccc(NC(=O)c2cccc(F)c2)c2ccccc12` yielded an RP-LC retention time of 852 s.
With `N#Cc1cccc(NC(=O)C2CCN(S(=O)(=O)c3cc(-c4noc(C5CC5)n4)cs3)CC2)c1` the RP-LC retention time was 994 s.
For `COc1c(C)c2c(c(O)c1C/C=C(\C)CCC(=O)O)C(=O)OC2`, the RP-LC retention time was 800 s.
For `Cc1cc(-c2c(C)sc(C)c2S(=O)(=O)NC2CCCCCC2)n[nH]1`, the RP-LC retention time was 1140 s.
Work on `CCn1c(=O)oc2cc(-c3noc(-c4cc(C)cc(C)c4)n3)ccc21` yielded an RP-LC retention time of 1300 s.
